Reference: patent US10428082B2, “Triazole derivatives of melampomagnolide B and methods of use thereof” (BioVentures, LLC, priority 2016, dated 2019)
Where two headings read alike, the source gives them in different places.

Key:
[1] = system: M9 ENL1 cell line; assay: Anti-leukemic activity, Annexin V/7-AAD flow cytometry; type: cell-based; conditions: 24 h of drug exposure, read-out: M9ENL1 (EC50)
Description: The newly synthesized triazole derivatives of melampomagnolide B were screened for anti-leukemic activity against M9 ENL1 and primary AML cell lines; the latter were obtained with informed consent from human patients. Evaluations were performed after 24 h of drug exposure using flow cytometric analysis by labeling with Annexin V and 7-aminoactinomycin D (7-AAD) to delineate apoptotic cell populations. In all experiments PTL was included as a reference control.

[2] = system: M14; assay: NCI 60 growth inhibition; type: cell-based, human; conditions: M14, Melanoma
Description: (§1) The above triazole derivatives of melampomagnolide B were evaluated for growth inhibitory properties against an NCI panel of 60 human cancer cell lines derived from nine human cancer cell types, grouped into disease sub-panels that represent leukemia, lung, colon, central nervous system (CNS), melanoma, renal, ovary, breast, and prostate cancer cells. Growth inhibitory (GI50) effects were measured as a function of the variation of optical density as a percentage of control.

[3] = system: CCRF-CEM; assay: NCI 60 growth inhibition; type: cell-based, human; conditions: Leukemia
Description: as §1

[4] = system: CAKI-1; assay: NCI 60 growth inhibition; type: cell-based, human; conditions: CAKI-1, Renal Cancer
Description: as §1

[5] = system: MDA-MB-468; assay: NCI 60 growth inhibition; type: cell-based, human; conditions: MDA-MB-468, Breast Cancer
Description: as §1

[6] = system: LOX IMVI; assay: NCI 60 growth inhibition; type: cell-based, human; conditions: Melanoma
Description: as §1

[7] = system: SK-MEL-28; assay: NCI 60 growth inhibition; type: cell-based, human; conditions: SK-MEL-28, Melanoma, Table 3
Description: as §1

[8] = system: PC-3; assay: NCI 60 growth inhibition; type: cell-based, human; conditions: PC-3, Prostate Cancer
Description: as §1

[9] = system: MALME-3M; assay: NCI 60 growth inhibition; type: cell-based, human; conditions: Melanoma
Description: as §1

[10] = system: ACHN; assay: NCI 60 growth inhibition; type: cell-based, human; conditions: Renal Cancer
Description: as §1

[11] = system: HL-60(TB); assay: NCI 60 growth inhibition; type: cell-based, human; conditions: Leukemia
Description: as §1

[12] = system: IGROV1; assay: NCI 60 growth inhibition; type: cell-based, human; conditions: IGROV1, Ovarian Cancer
Description: as §1

[13] = system: BT-549; assay: NCI 60 growth inhibition; type: cell-based, human; conditions: BT-549, Breast Cancer
Description: as §1

[14] = system: T-47D; assay: NCI 60 growth inhibition; type: cell-based, human; conditions: Breast Cancer
Description: as §1

[15] = system: HCC-2998; assay: NCI 60 growth inhibition; type: cell-based, human; conditions: HCC-2998, Colon Cancer
Description: as §1

[16] = system: HCT-116; assay: NCI 60 growth inhibition; type: cell-based, human; conditions: HCT-116, Colon Cancer
Description: as §1

[17] = system: NCI-H522; assay: NCI 60 growth inhibition; type: cell-based, human; conditions: NCI-H522, Non-Small Cell Lung Cancer
Description: as §1

[18] = system: MOLT-4; assay: NCI 60 growth inhibition; type: cell-based, human; conditions: MOLT-4, Leukemia
Description: as §1

[19] = system: NCI-H23; assay: NCI 60 growth inhibition; type: cell-based, human; conditions: NCI-H23, Non-Small Cell Lung Cancer
Description: as §1

[20] = system: OVCAR-5; assay: NCI 60 growth inhibition; type: cell-based, human; conditions: OVCAR-5, Ovarian Cancer
Description: as §1

[21] = system: NCI-H322M; assay: NCI 60 growth inhibition; type: cell-based, human; conditions: Non-Small Cell Lung Cancer
Description: as §1

[22] = system: MDA-MB-435; assay: NCI 60 growth inhibition; type: cell-based, human; conditions: MDA-MB-435, Melanoma
Description: as §1

[23] = system: A549/ATCC; assay: NCI 60 growth inhibition; type: cell-based, human; conditions: Non-Small Cell Lung Cancer
Description: as §1

[24] = system: SK-MEL-5; assay: NCI 60 growth inhibition; type: cell-based, human; conditions: SK-MEL-5, Melanoma
Description: as §1

[25] = system: SF-539; assay: NCI 60 growth inhibition; type: cell-based, human; conditions: SF-539, CNS Cancer
Description: as §1

[26] = system: COLO 205; assay: NCI 60 growth inhibition; type: cell-based, human; conditions: COLO 205, Colon Cancer
Description: as §1

[27] = system: SNB-19; assay: NCI 60 growth inhibition; type: cell-based, human; conditions: SNB-19, CNS Cancer
Description: as §1

[28] = system: SN12C; assay: NCI 60 growth inhibition; type: cell-based, human; conditions: Renal Cancer
Description: as §1

[29] = system: MCF7; assay: NCI 60 growth inhibition; type: cell-based, human; conditions: MCF7, Breast Cancer
Description: as §1

[30] = system: HT29; assay: NCI 60 growth inhibition; type: cell-based, human
Description: as §1

[31] = system: SK-MEL-2; assay: NCI 60 growth inhibition; type: cell-based, human; conditions: SK-MEL-2, Melanoma
Description: as §1

[32] = system: K-562; assay: NCI 60 growth inhibition; type: cell-based, human; conditions: K-562, Leukemia
Description: as §1

[33] = system: RXF 393; assay: NCI 60 growth inhibition; type: cell-based, human
Description: as §1

[34] = system: SW-620; assay: NCI 60 growth inhibition; type: cell-based, human; conditions: SW-620, Colon Cancer
Description: as §1

[35] = system: NCI panel of 60 human cancer cell lines; assay: NCI 60 growth inhibition, ranges over groups of cell lines; type: cell-based; conditions: several cell lines in the panel, read-out: GI50
Description: as §1

## C=C1C(=O)O[C@H]2[C@H]1CC/C(Cn1cc(-c3ccc(N)cc3)nn1)=C\CC[C@@]1(C)O[C@@H]21 [JVM 4-58]
[1]
  EC50: 2 µM
[2]; Table 3
  GI50: 2.97 µM
[3]; Table 3
  GI50: 2 µM
[4]; Table 3
  GI50: 1.77 µM
[5]; Table 3
  GI50: 1.77 µM
[6]; Table 3
  GI50: 1.51 µM
[7]
  GI50: 2.71 µM
[8]; Table 3
  GI50: 10.1 µM
[9]; Table 3
  GI50: 2.18 µM
[10]; Table 3
  GI50: 2.65 µM
[11]; HL-60 (TB), Table 3
  GI50: 2.23 µM
[12]; Table 3
  GI50: 2.96 µM
[13]; Table 3
  GI50: 3.05 µM
[14]; Table 3
  GI50: 2.23 µM
[15]; Table 3
  GI50: 3.49 µM
[16]; Table 3
  GI50: 1.55 µM
[17]; Table 3
  GI50: 1.37 µM
[18]; Table 3
  GI50: 2.87 µM
[19]; Table 3
  GI50: 2.49 µM
[20]; Table 3
  GI50: 6.43 µM
[21]; Table 3
  GI50: 12.6 µM
[22]; Table 3
  GI50: 3.01 µM
[23]; Table 3
  GI50: 11.9 µM
[24]; Table 3
  GI50: 3.47 µM
[25]; Table 3
  GI50: 2.77 µM
[26]; Table 3
  GI50: 1.79 µM
[27]; Table 3
  GI50: 12.7 µM
[28]; Table 3
  GI50: 3.48 µM
[29]; Table 3
  GI50: 2.41 µM
[30]; HT29, Colon Cancer, Table 3
  GI50: 2.14 µM
[31]; Table 3
  GI50: 10.6 µM
[32]; Table 3
  GI50: 2.99 µM
[33]; RXF 393, Renal Cancer, Table 3
  GI50: 1.41 µM
[34]; Table 3
  GI50: 2.16 µM

## C=C1C(=O)O[C@H]2[C@H]1CC/C(Cn1cc(CCC)nn1)=C\CC[C@@]1(C)O[C@@H]21 [JVM 4-16, (1aR,7aS,10aS,10bS,E)-1a-Methyl-8-methylene-5((4-propyl-1H-1,2,3-triazol-1-yl)methyl)-2,3,6,7,7a,8,10a,10b-octahydrooxireno[2′,3′:9,10]cyclodeca[1,2-b]furan-9(1aH)-one]
[1]; M9-ENL1, 24 h
  EC50: 5.5 µM
[35]
  GI50: < 5 µM
[2]; Homo sapiens, Table 2
  GI50: 3.99 µM
[3]; Homo sapiens, Table 2
  GI50: 3 µM
[4]; Homo sapiens, Table 2
  GI50: 3.91 µM
[5]; Homo sapiens, Table 2
  GI50: 3.65 µM
[6]; Homo sapiens, Table 2
  GI50: 3.91 µM
[8]; Homo sapiens, Table 2
  GI50: 14.9 µM
[9]; Homo sapiens, Table 2
  GI50: 4.7 µM
[10]; Homo sapiens, Table 2
  GI50: 3.81 µM
[11]; Homo sapiens, HL-60(TB), Table 2
  GI50: 3.53 µM
[12]; Homo sapiens, IGROV-1, Table 2
  GI50: 4.63 µM
[13]; Homo sapiens, Table 2
  GI50: 14.2 µM
[14]; Homo sapiens, T47D, Table 2
  GI50: 4.11 µM
[15]; Homo sapiens, Table 2
  GI50: 15.1 µM
[16]; Homo sapiens, Table 2
  GI50: 3.98 µM
[17]; Homo sapiens, Table 2
  GI50: 3.06 µM
[18]; Homo sapiens, Table 2
  GI50: 5.54 µM
[19]; Homo sapiens, Table 2
  GI50: 13.6 µM
[20]; Homo sapiens, Table 2
  GI50: 14.1 µM
[21]; Homo sapiens, Table 2
  GI50: 21.5 µM
[22]; Homo sapiens, Table 2
  GI50: 10.4 µM
[23]; Homo sapiens, Table 2
  GI50: 22.3 µM
[24]; Homo sapiens, Table 2
  GI50: 15.3 µM
[25]; Homo sapiens, Table 2
  GI50: 8.87 µM
[26]; Homo sapiens, Table 2
  GI50: 5.22 µM
[27]; Homo sapiens, Table 2
  GI50: 18.8 µM
[28]; Homo sapiens, Table 2
  GI50: 12.1 µM
[29]; Homo sapiens, Table 2
  GI50: 3.35 µM
[30]; Homo sapiens, HT-29, Colon Cancer, Table 2
  GI50: 5.5 µM
[31]; Homo sapiens, Table 2
  GI50: 16.3 µM
[32]; Homo sapiens, K562, Table 2
  GI50: 3.96 µM
[33]; Homo sapiens, RXF 393, RXF 393, Renal Cancer, Table 2
  GI50: 4.8 µM
[34]; Homo sapiens, Table 2
  GI50: 4.23 µM
